Test results as given in patent publication EP2359864B1, “Targeting Vector-Phospholipid Conjugates” (Bracco Suisse SA, priority 2005, dated 2019).
Read-outs that look alike come from different tables or passages of the source. Numbered stars: 1 amine (or outer) side, 2 acyl side, 3 side chain; on linkers, the order of the positions; unused ones are H or OH. Side chains are listed from the residue outwards. * marks the point of attachment. DSPE = CCCCCCCCCCCCCCCCCC(=O)OC[C@H](COP(=O)(O)OCCN*)OC(=O)CCCCCCCCCCCCCCCCC; Glutaryl = O=C(CCCC(=O)[*:2])[*:1]

What was measured:
[1] = test system: KDR; conditions: as shown in co-pending U.S. Application No. 10/661,156; cited from earlier work
[2] = test system: KDR receptor expressed on the endothelium of neovessels; test: In vivo ultrasound imaging of KDR-targeted contrast agents, rabbit VX2 tumor model; set-up: species or system New Zealand rabbits; conditions: confirmed using echographic examination of VX2 tumors in rabbits
Protocol: The ability of ultrasound contrast agents containing KDR binding lipopeptides of the invention to bind to KDR-expressing tissue in vivo was assessed using a known model of angiogenesis: the rabbit VX2 tumor model.
A known model of angiogenic tissue was used to examine the ability of the KDR-targeted ultrasound microbubbles to localize to and provide an image of angiogenic tissue. The VX2 rabbit carcinoma was serially implanted in the dorsal muscle of New Zealand rabbits (Charles River Laboratories, France) weighting 2.5/3kg.
Tumor was surgically removed, placed into McCoy's culture medium containing 10% fetal calf serum, antibiotics, 1.5 mM Glutamax I and cut into small pieces that were rinsed to remove blood and debris. Then tumor pieces (3 to 5 cm^3) were placed in a 50 ml Falcon tube containing 5 mL of complete medium. The tumor tissue was ground (Polytron) until no more solid pieces were visible. The murky fluid was centrifuged for 5 minutes at 300g and the supernatant discarded. Seven mL of fresh medium was added per 5 mL of pellet.
Rabbits received first 0.3 mL of Vetranquil (Acepromazine, Sanofi, injected intramuscularly) and were then anesthetized with an intramuscular injection of Ketaminol®5/Xylazine (Veterinaria AG/Sigma) mixture (50/10 mg/mL, 0.7 mL/kg). One hundred microliters of VX2 tumor homogenate was injected intramuscularly. Fifteen days after implantation of VX2 tumors, animals were anesthetized again with the same mixture, plus subcutaneous injection of 50% Urethane (2mL/kg, s.c.) (Sigma) for imaging experiments. […]
After bubble injection (0.1 µL/kg of gas) using the preparations of either Example 16 or Example 17, insonation was stopped allowing bubbles to accumulate for 25 minutes. […] The amount of free circulating bubbles was then assessed by recording the signal obtained after 20 sec accumulation without insonation. Video frames from VX2 tumor imaging experiments were captured with video-capture and analysed with Image-Pro Plus 2.0 software. […]

[3] = test system: KDR; test: Binding affinity of peptide monomers to KDR (statement only); conditions: statement in the description, no data shown
[4] = Storage stability: formation of lyso- compound (analytical HPLC); type: physicochemical; conditions: after 5 days at room temperature; material after Zorbax C-3 preparative HPLC
Protocol: The present invention provides methods for producing dimeric peptide-phospholipid conjugates having very low levels of TFA. While certain methods provide for the synthesis and purification of such conjugates on a gram scale, formation of a lyso- version of the conjugates has been observed upon storage of lyophilized material at 5°C or upon storage of aqueous solutions of the conjugates. It is believed that the lyso- compound is formed by TFA-promoted acid hydrolysis of one of the phospholipid fatty acid esters in dimer peptide-phospholipid conjugates.
Materials used and conditions for the analytical HPLC system include the following: Column: Zorbax 300SB C-3; 3 mm i.d. x 150 mm; 3.5 µm particle; Eluent A : H2O (HPLC Grade with 0.1% TFA by volume); Eluent B: CH3CN (0.1% TFA by volume). Elution: Initial condition: 50% B then a linear gradient of 50-90% B over 3 min, hold at 90% B for 11 min; Flow rate: 0.5 mL/min; Detection: UV at 220 nm. Ret. time: (Compound (21)): 6.77 min, Rt (lyso): 4.06 min.
The fractions that contained (21) were combined and lyophilized to give a white fluffy solid. This was dissolved in water-acetonitrile, then lyophilized again. This provided 70 mg product devoid of the lyso- compound. The recovery was about 70%. After chromatography was completed, the system was washed with 95% B for 15 min at a flow rate of 30 mL/min. […]

[5] = molecular target: Full-length KDR on transfected 293H cells (UniProt P35968); test: static binding of targeted microbubbles (DPPE/DPPG envelope) on KDR-transfected 293H cells minus mock-transfected cells
Chain of UniProt P35968 (P35968 20-1356 limits assumed): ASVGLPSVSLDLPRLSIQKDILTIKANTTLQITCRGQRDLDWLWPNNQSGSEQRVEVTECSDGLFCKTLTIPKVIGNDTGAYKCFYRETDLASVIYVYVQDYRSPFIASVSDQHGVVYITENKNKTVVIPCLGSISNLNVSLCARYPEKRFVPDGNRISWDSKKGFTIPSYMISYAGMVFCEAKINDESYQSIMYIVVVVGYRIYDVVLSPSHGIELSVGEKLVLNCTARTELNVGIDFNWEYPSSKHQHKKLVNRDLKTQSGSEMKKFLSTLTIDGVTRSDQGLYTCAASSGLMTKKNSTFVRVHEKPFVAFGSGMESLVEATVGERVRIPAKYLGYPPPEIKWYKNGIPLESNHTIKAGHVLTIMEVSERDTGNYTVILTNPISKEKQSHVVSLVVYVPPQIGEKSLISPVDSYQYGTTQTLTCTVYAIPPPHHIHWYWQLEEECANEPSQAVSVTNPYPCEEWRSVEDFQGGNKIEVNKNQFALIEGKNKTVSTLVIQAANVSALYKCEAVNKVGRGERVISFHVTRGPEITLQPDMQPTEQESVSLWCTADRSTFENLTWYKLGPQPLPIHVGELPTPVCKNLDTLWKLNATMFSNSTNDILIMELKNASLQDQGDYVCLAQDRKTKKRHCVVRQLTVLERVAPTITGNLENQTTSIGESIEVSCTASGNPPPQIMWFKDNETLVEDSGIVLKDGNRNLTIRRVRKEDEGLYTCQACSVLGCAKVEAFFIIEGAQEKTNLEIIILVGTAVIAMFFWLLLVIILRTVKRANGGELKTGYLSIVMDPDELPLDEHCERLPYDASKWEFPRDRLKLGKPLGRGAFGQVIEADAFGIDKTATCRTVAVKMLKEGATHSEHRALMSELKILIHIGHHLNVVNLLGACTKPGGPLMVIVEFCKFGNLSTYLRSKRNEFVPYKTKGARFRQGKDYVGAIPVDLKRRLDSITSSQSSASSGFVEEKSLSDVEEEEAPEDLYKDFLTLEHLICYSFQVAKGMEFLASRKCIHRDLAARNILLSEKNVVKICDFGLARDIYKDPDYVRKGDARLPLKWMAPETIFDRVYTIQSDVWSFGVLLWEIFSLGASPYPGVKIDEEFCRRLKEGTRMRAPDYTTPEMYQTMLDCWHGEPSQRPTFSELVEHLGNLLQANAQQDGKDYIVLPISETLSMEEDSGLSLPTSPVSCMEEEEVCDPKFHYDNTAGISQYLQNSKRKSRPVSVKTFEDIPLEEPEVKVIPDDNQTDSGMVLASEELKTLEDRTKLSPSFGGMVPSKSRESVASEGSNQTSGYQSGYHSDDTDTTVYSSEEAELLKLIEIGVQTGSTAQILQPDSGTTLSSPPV

[6] = molecular target: Full-length KDR on transfected 293H cells (UniProt P35968); test: static binding of targeted microbubbles (DPPE/DPPG envelope) on KDR-transfected 293H cells, 50% human plasma, microscopy
[7] = molecular target: Full-length KDR on transfected 293H cells (UniProt P35968); test: static binding of targeted microbubbles (DSPC/DPPG envelope) on KDR-transfected 293H cells, 50% human plasma, microscopy
[8] = molecular target: Full-length KDR on transfected 293H cells (UniProt P35968); test: static binding of targeted microbubbles (DSPC/DPPG envelope) on KDR-transfected 293H cells minus mock-transfected cells

Ac-AQDWYYDEILSMADQLRHAFLSGGGGGK-NH2 [(32)]
binding affinity to KDR [1]: high affinity

Ac-AQDWYYDEILSMADQLRHAFLSGGGGGK(DSPE-PEG2000-NH-Glut)-NH2 [(31)]
KDR binding of gas filled microbubbles formulated with the conjugate [2]: high KDR binding

CC[C@H](C)[C@H](NC(=O)[C@H](CCC(=O)O)NC(=O)[C@H](CC(=O)O)NC(=O)[C@H](Cc1ccc(O)cc1)NC(=O)[C@H](Cc1ccc(O)cc1)NC(=O)[C@H](Cc1c[nH]c2ccccc12)NC(=O)[C@H](CC(=O)O)NC(=O)[C@H](CCC(N)=O)NC(=O)[C@H](C)NC(=O)[C@H](CCCNC(=N)N)NC(C)=O)C(=O)N[C@@H](CC(C)C)C(=O)N[C@@H](CO)C(=O)N[C@@H](CCSC)C(=O)N[C@@H](C)C(=O)N[C@@H](CC(=O)O)C(=O)N[C@@H](CCC(N)=O)C(=O)N[C@@H](CC(C)C)C(=O)N[C@@H](CCCNC(=N)N)C(=O)N[C@@H](Cc1c[nH]cn1)C(=O)N[C@@H](C)C(=O)N[C@@H](Cc1ccccc1)C(=O)N[C@@H](CC(C)C)C(=O)N[C@@H](CO)C(=O)NCC(=O)NCC(=O)NCC(=O)NCC(=O)NCC(=O)N[C@@H](CCCCN)C(N)=O [(2)]
binding affinity to KDR [3]: high affinity

Ac-AGPTWCEDDWYYCWLFGTGGGK{Ac-VCWEDSWGGEVCFRYDPGGGK[-Adoa-Adoa-Glut-K(DSPE-PEG2000-NH-Glut)]-NH2 cyclic (2-12) disulfide}-NH2 cyclic (6-13) disulfide [(21)]
formation of lyso- compound [4]: no lyso- compound formed

Ac-RAQDWYYDEILSMADQLRHAFLSGGGGGK(DSPE-PEG2000-NH-Glut)-NH2 (not fully specified; N-acetyl, C-amide, DSPE-PEG2000-NH-Glut lipid conjugate) [(1)]
KDR binding of gas filled microbubbles formulated with the conjugate [2]: high KDR binding

Ac-AGPTWCEDDWYYCWLFGTGGGK{Ac-VCWEDSWGGEVCFRYDP-GGGK[-Adoa-Adoa-Glut-K(DSPE-PEG2000-NH-Glut)]-NH2 cyclic (2-12) disulfide}-NH2 cyclic (6-13) disulfide [(11)]
KDR binding of gas filled microbubbles formulated with the conjugate [2]: high KDR binding

Ac-AQDWYYDEILSMADQLRHAFLSGGGGGK([Glutaryl-PEG2000-DSPE])-NH2 [monomeric peptide phospholipid conjugate (31)]
% of surface covered by bound microbubbles (KDR-Mock) [5]: 23.5% | % of surface covered by bound microbubbles (KDR) [6]: 23.6% | % of surface covered by bound microbubbles (KDR) [7]: 28% | % of surface covered by bound microbubbles (KDR-Mock) [8]: 27.7%
